Source: paper PMC10480161, “Identification of potent and selective N-myristoyltransferase inhibitors of Plasmodium vivax liver stage hypnozoites and schizonts” (Nature Communications, 2023)
Values joined by “and” are separate entries in the source; they are usually repeats but may differ in a detail not shown here. Equal entries are not always repeated. Where two headings read alike, the source gives them in different places.

Experiments:
HsNMT1 = molecular target: T1, HsNMT1 (Homo sapiens, UniProt P30419); test: NMT activity assay (CPM detection of free CoA), HsNMT
T1 sequence (P30419 1-496): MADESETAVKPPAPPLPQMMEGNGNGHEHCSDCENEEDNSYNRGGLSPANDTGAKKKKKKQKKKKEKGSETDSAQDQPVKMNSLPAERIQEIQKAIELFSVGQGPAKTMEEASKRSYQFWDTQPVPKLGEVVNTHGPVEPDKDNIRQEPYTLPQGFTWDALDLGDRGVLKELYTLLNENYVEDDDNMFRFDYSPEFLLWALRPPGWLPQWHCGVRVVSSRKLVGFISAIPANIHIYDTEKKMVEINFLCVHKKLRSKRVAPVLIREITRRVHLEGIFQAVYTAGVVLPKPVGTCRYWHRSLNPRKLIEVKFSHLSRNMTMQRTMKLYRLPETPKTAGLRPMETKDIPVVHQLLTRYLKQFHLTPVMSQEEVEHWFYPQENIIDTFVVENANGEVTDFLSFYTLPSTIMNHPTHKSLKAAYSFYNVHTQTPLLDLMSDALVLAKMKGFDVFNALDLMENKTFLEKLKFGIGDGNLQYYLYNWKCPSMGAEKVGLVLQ

P. vivax hypnozoites = test: P. vivax liver stage assay, hypnozoites; type: cell-based, Plasmodium vivax; conditions: for Hypnozoites per well: Isolate 2, replicate wells (Figure 6d); for Number of liverstage hypnozoites per well: 20 µM, 8 dpi; for IC50: primary human hepatocytes, treatment day 5 to 8 post-infection, isolate 2
Procedure: Finally, we evaluated the NMT-binding compounds against non-developing P. vivax hypnozoites. […] (Fig. 6A). […] We, therefore, evaluated the impact of all tested compounds on P. vivax hypnozoites using these two isolates.
Plasmodium vivax liver stage assays were performed as described previously. Cryopreserved primary human hepatocytes (Cat No. F00995-P) and hepatocyte culture medium (HCM) (InVitroGroTM CP Medium) were obtained from Bioreclamation IVT, Inc., (Baltimore, MD, USA). Briefly, we seeded 384-well plates with primary hepatocytes from a single donor lot at a density of 25,000 cells per well. We then infected the hepatocytes with 14,000 freshly hand-dissected sporozoites per well. Cells were exposed to the compounds at indicated concentrations from day 5 post-infection. We used Pi4K inhibitor MMV390048, at 20 µM, as a positive control to eliminate P. vivax liver schizonts. We then proceeded to feed cultures every day, replacing the compounds until day 8 post-infection. Cells were fixed with 4% PFA, permeabilized with 1% Triton X-100, blocked with 2% BSA, and stained with DAPI and PvUIS4 antibodies to detect schizonts and hypnozoites forms by confocal microscopy. For antibody dilutions, PvUIS4 (kind gift from Dr. Noah Sather, Seattle Children’s Research Institute) was diluted 1:250 and the secondary antibody was anti-mouse AlexaFluor-594 (Cat # A-11005; RRID: AB_2534073) diluted 1:1000. DAPI was diluted 1:2000. The images were processed, analyzed and outlier cells were removed using IMARIS (Bitplane Inc.) image analysis software.

PvNMT = PvNMT (Plasmodium vivax, UniProt A5K1A2); test: NMT activity assay (CPM detection of free CoA), PvNMT; conditions: for SI: enzyme selectivity, HsNMT IC50/PvNMT IC50
HepG2 cells = test: HepG2 cytotoxicity assay (Live/Dead staining); conditions: for Percentage of live HepG2 cells compared with diluent controls: replicates
In short: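 HepG2 cells (5000/well) treated with compounds at 1 to 20 µM, re-dosed with fresh compound every 24 h. Viability scored at 72 h by calcein-AM/ethidium homodimer (1 µM each, 10 min, 37 °C) live/dead staining under fluorescence microscopy.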

P. falciparum NF54 = test: P. falciparum blood stage assay (SYBR Green); type: cell-based, Plasmodium falciparum; conditions: 72 h; for P. falciparum blood-stage development (parasite DNA level fluorescence): untreated = 129; for IC50: ring-stage parasites, relative IC50
Procedure: To assess whether any of the PvNMTis developed here could qualify as TCP-1 candidates, we assessed the effect of each compound on blood-stage P. falciparum parasites, as there is currently no well-established in vitro platform for screening P. vivax blood-stage parasites. Synchronized P. falciparum NF54 ring-stage parasites were treated for 72 h with each compound at various concentrations, ranging from 0.625 µM to 10 µM, and parasite DNA replication was measured using a fluorescent DNA binding dye (SYBR Green).
Sorbitol-synchronized P. falciparum NF54 ring-stage parasites were cultured at a parasitemia of 0.5% and hematocrit of 1.5% in a 96-well microtiter plate. Parasites were treated with each NMT inhibitor compound at 0.625, 1.25, 2.5, 5, or 10 µM for 72 h. Direct lysis of the blood cells to release the parasite DNA was performed by adding 100 μl of LBS buffer containing SYBR green I DNA binding dye to each well. […] ICEstimator regression analysis (http://www.antimalarial-icestimator.net/) was used to obtain relative IC50 values for each compound.

[1] = isolate 1, technical replicates (Fig. 6C)
[2] = isolate 2, technical replicates (Fig. 6C)
[3] = isolate 3, technical replicates (Fig. 6C)
[4] = Plasmodium vivax, Hepatocyte, 120 h
[5] = PvNMT IC50, mean of two or more determinations

Sequence of PvNMT (A5K1A2 entry or part of it): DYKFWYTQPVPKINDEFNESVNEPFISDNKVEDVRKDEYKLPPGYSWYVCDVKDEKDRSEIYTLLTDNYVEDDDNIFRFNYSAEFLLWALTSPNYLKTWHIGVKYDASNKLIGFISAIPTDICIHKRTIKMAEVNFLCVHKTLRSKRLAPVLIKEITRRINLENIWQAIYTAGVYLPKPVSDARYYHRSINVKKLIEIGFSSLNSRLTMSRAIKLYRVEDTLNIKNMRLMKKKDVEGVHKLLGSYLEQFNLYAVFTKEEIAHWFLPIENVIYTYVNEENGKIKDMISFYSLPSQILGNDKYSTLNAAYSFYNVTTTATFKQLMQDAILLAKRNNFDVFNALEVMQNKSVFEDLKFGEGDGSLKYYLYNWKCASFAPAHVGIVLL

SMILES | Hypnozoites per well (P. vivax hypnozoites; 1.25 uM) | Hypnozoites per well (P. vivax hypnozoites; 2.5 uM) | Hypnozoites per well (P. vivax hypnozoites; 5 uM) | Hypnozoites per well (P. vivax hypnozoites; 10 uM) | Number of liverstage hypnozoites per well (P. vivax hypnozoites; [1]) | Number of liverstage hypnozoites per well (P. vivax hypnozoites; [2]) | Number of liverstage hypnozoites per well (P. vivax hypnozoites; [3]) | Hypnozoites per well (P. vivax hypnozoites; 20 uM) | hypnozoites (fold change to DMSO) mean diff (P. vivax hypnozoites; isolate 1, 20 µM) | hypnozoites (fold change to DMSO) mean diff (P. vivax hypnozoites; isolate 2, 20 µM) | SI (PvNMT) | Percentage of live HepG2 cells compared with diluent controls (HepG2 cells; 1 μM) | Percentage of live HepG2 cells compared with diluent controls (HepG2 cells; 2.5 μM) | Percentage of live HepG2 cells compared with diluent controls (HepG2 cells; 5 μM) | Percentage of live HepG2 cells compared with diluent controls (HepG2 cells; 10 μM) | Percentage of live HepG2 cells compared with diluent controls (HepG2 cells; 20 μM) | P. falciparum blood-stage development (parasite DNA level fluorescence) (P. falciparum NF54; 0.625 uM) | P. falciparum blood-stage development (parasite DNA level fluorescence) (P. falciparum NF54; 1.25 uM) | P. falciparum blood-stage development (parasite DNA level fluorescence) (P. falciparum NF54; 2.5 uM) | P. falciparum blood-stage development (parasite DNA level fluorescence) (P. falciparum NF54; 5 uM) | other results
Cc1n[nH]c(C)c1CCOc1cc(F)ccc1-c1ccnc(N2CCNCC2)c1 [Compound 12q] | 11 and 8 and 10 | 8 and 5 and 7 | 5 and 6 and 3 | 5 and 0 and 3 | 0 per well (2×) and 1 per well | 1 per well (2×) and 0 per well | 0 per well | 1 (2×) and 0 | 0.939 | 0.931 | 22 | 99.2906% and 100.564% | 95.6786% and 92.2225% | 91.8587% and 84.219% | 83.4135% and 96.0684% | 80.0613% and 94.8991% | 114.1 | 119.1 | 116.1 | 98.36 | IC50 (HsNMT1; read-out: HsNMT IC50, mean of two or more determinations): 1630 nM; IC50 (P. vivax hypnozoites): 4400 nM; IC50 (PvNMT; read-out: PvNMT IC50, mean of two or more determinations): 73 nM; IC50 (HepG2 cells): > 20000 nM; P. falciparum blood-stage development (parasite DNA level fluorescence) (P. falciparum NF54; 10 uM): 97.95; IC50 (P. falciparum NF54): 380 nM
Cc1nn(C)c(C)c1CCOc1ccccc1-c1cccc(OCCN(C)C)c1 [Compound 26b] | 10 and 6 and 12 | 4 and 8 and 7 | 7 and 5 and 9 | 4 (2×) and 0 | 1 per well (2×) and 2 per well | 3 per well and 1 per well and 2 per well | 0 per well | 3 and 1 and 2 | 0.908 | 0.793 | 118.4 | 97.4196% and 92.7163% | 92.7942% and 91.1312% | 90.5335% and 86.8176% | 83.2575% and 84.0111% | 77.3069% and 77.3588% | 123.3 | 124.2 | 115.6 | 103.2 | IC50 (HsNMT1): 9850 nM; IC50 (P. vivax hypnozoites; [4]): 4600 nM; IC50 (PvNMT; [5]): 83.2 nM; P. falciparum blood-stage development (parasite DNA level fluorescence) (P. falciparum NF54; 10 uM): 94.32; IC50 (P. falciparum NF54; Plasmodium falciparum, NF54): 710 nM
Cc1nn(C)c(C)c1CCOc1cc(F)ccc1-c1cccc(OCCN(C)C)c1 [Compound 26c] | 7 and 11 and 8 | 6 and 5 and 7 | 6 (2×) and 3 | 3 and 2 and 7 | 4 per well and 0 per well (2×) | 4 per well and 0 per well (2×) | 0 per well (2×) and 1 per well | 4 and 0 (2×) | 0.923 | 0.862 | 162.3 | 106.359% and 107.918% | 107.866% and 101.058% | 101.681% and 95.3408% | 87.7011% and 97.3677% | 83.4394% and 83.5174% | 127.1 | 126.9 | 117.8 | 108.1 | IC50 (HsNMT1): 4790 nM; IC50 (P. vivax hypnozoites; [4]): 4200 nM; IC50 (PvNMT; [5]): 29.4 nM; P. falciparum blood-stage development (parasite DNA level fluorescence) (P. falciparum NF54; 10 uM): 97.66; IC50 (P. falciparum NF54; Plasmodium falciparum, NF54): 820 nM
Cc1n[nH]c(C)c1CCOc1cc(F)ccc1-c1cccc(OCCN(C)C)c1 [Compound 26i] | 10 and 7 and 12 | 7 and 9 and 14 | 10 and 7 and 12 | 8 and 12 and 14 | 8 per well and 6 per well (2×) | 8 per well and 6 per well (2×) | 0 per well | 8 and 6 (2×) | 1.000 | 0.310 | 57 | 96.6401% and 97.1078% | 90.0917% | 95.2109% and 86.8435% | 86.5317% and 90.6634% | 79.0479% and 88.1213% | 109.6 | 112.9 | 111.2 | 93.25 | IC50 (HsNMT1): 13900 nM; IC50 (P. vivax hypnozoites; [4]): 11000 nM; IC50 (PvNMT; [5]): 242 nM; P. falciparum blood-stage development (parasite DNA level fluorescence) (P. falciparum NF54; 10 uM): 85.5; IC50 (P. falciparum NF54; Plasmodium falciparum, NF54): 400 nM
